Measurements as given in ChEMBL document CHEMBL5029157, “Identification of unprecedented ATP-competitive choline kinase inhibitors” (Bioorg Med Chem Lett, 2021).
Values after ≈ are worked out from the molar mass of the structure shown.

Tests used:
[1] = target: Choline/ethanolamine kinase (Homo sapiens, UniProt Q9Y259)
[2] = Solubility of compound at pH 7; format: physicochemical; details: buffer
[3] = Metabolic stability in rat hepatocyte assessed as intrinsic clearance; format: ADME, tissue-based; details: hepatocytes, read-out: CLH
[4] = Metabolic stability in human liver microsomes assessed as intrinsic clearance; format: ADME, Microsome; details: read-out: CLH

Chain of Choline/ethanolamine kinase (Q9Y259 whole entry): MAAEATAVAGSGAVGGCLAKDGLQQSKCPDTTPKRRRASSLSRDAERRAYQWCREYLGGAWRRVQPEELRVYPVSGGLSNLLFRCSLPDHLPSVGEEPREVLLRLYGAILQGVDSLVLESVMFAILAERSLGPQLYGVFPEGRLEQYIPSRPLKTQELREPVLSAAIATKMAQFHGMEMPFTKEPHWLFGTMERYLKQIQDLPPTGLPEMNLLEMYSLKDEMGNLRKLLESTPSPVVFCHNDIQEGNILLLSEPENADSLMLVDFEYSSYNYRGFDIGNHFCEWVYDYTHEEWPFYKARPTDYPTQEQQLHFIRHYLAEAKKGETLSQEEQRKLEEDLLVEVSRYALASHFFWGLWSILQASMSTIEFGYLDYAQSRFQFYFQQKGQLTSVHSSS

Row | IC50 [1] [µM] | solubility [2] [µM] | CLint scaled [3] [mL/min/kg] | CLint scaled [4] [mL/min/kg] | Structure (SMILES)
1 | > 10 | – | – | – | COc1cccc(NC(=O)[C@H]2CC[C@@H](n3cnc4c(N)nc(-c5ccc6cn[nH]c6c5)nc43)CC2)c1
2 | – | 2 (≈ 0.97 µg/mL) | – | – | NC(=O)Cc1ccc2nc(NC(=O)[C@H]3CC[C@@H](n4cnc5c(N)nc(Cl)nc54)CC3)sc2c1
3 | – | 3 (≈ 1.34 µg/mL) | – | – | Nc1nc(Cl)nc2c1ncn2[C@H]1CC[C@@H](C(=O)Nc2nc3ccc(F)cc3s2)CC1
4 | – | 97 (≈ 42.2 µg/mL) | – | – | NC(=O)Cc1cnc(NC(=O)[C@H]2CC[C@@H](n3cnc4c(N)nc(Cl)nc43)CC2)s1
5 | – | 171 (≈ 76.4 µg/mL) | 49 | 33 | CN1CCc2nc(NC(=O)[C@H]3CC[C@@H](n4cnc5c(N)nc(Cl)nc54)CC3)sc2C1
6 | – | 105 (≈ 45.2 µg/mL) | 22 | 13 | CN1CCc2nc(NC(=O)[C@H]3CC[C@@H](n4cnc5c(N)nc(F)nc54)CC3)sc2C1
7 | – | 2 (≈ 0.751 µg/mL) | 34 | 12 | Cc1csc(NC(=O)[C@H]2CC[C@@H](n3cnc4c(N)nc(F)nc43)CC2)n1
8 | – | 3 (≈ 1.33 µg/mL) | – | – | Nc1nc(Cl)nc2c1ncn2[C@H]1CC[C@@H](C(=O)Nc2nc3ccc(O)cc3s2)CC1
9 | – | 2 (≈ 0.916 µg/mL) | – | – | COc1cccc2sc(NC(=O)[C@H]3CC[C@@H](n4cnc5c(N)nc(Cl)nc54)CC3)nc12
10 | – | 73 (≈ 34.7 µg/mL) | – | – | CC(C)N1CCc2nc(NC(=O)[C@H]3CC[C@@H](n4cnc5c(N)nc(Cl)nc54)CC3)sc2C1
11 | – | 4 (≈ 1.78 µg/mL) | – | – | Nc1nc(Cl)nc2c1ncn2[C@H]1CC[C@@H](C(=O)Nc2nc3c(O)cccc3s2)CC1
12 | > 10 | – | – | – | Nc1ncnc2c1ncn2[C@H]1CC[C@@H](C(=O)Nc2cccc(S(=O)(=O)C(F)(F)F)c2)CC1
13 | – | 37 (≈ 17.8 µg/mL) | – | – | Nc1nc(Cl)nc2c1ncn2[C@H]1CC[C@@H](C(=O)Nc2nc3c(s2)CS(=O)(=O)CC3)CC1
14 | – | 153 (≈ 66.2 µg/mL) | – | – | Nc1nc(Cl)nc2c1ncn2[C@H]1CC[C@@H](C(=O)Nc2nc3c(s2)CNCC3)CC1
15 | > 10 | – | – | – | CS(=O)(=O)c1ccc(NC(=O)[C@H]2CC[C@@H](n3cnc4c(N)ncnc43)CC2)cc1
16 | – | 6 (≈ 2.61 µg/mL) | – | – | NC(=O)Cc1csc(NC(=O)[C@H]2CC[C@@H](n3cnc4c(N)nc(Cl)nc43)CC2)n1
17 | – | 15 (≈ 5.88 µg/mL) | 34 | 12 | Cc1csc(NC(=O)[C@H]2CC[C@@H](n3cnc4c(N)nc(Cl)nc43)CC2)n1
18 | > 10 | – | – | – | Nc1ncnc2c1ncn2[C@H]1CC[C@@H](C(=O)Nc2ccc(S(=O)(=O)C(F)(F)F)cc2)CC1
19 | – | 5 (≈ 1.96 µg/mL) | – | – | Cc1cnc(NC(=O)[C@H]2CC[C@@H](n3cnc4c(N)nc(Cl)nc43)CC2)s1
20 | – | 119 (≈ 58.2 µg/mL) | 97 | 78 | CC1(C)Cc2nc(NC(=O)[C@H]3CC[C@@H](n4cnc5c(N)nc(Cl)nc54)CC3)sc2C(C)(C)N1
21 | – | 9 (≈ 4.01 µg/mL) | – | – | Nc1nc(Cl)nc2c1ncn2[C@H]1CC[C@@H](C(=O)Nc2nc(C(F)(F)F)cs2)CC1
22 | – | 1 (≈ 0.464 µg/mL) | – | – | Nc1nc(Cl)nc2c1ncn2[C@H]1CC[C@@H](C(=O)Nc2nc3c(F)cc(F)cc3s2)CC1
23 | – | 200 (≈ 94.5 µg/mL) | 84 | 56 | CC1(C)Cc2nc(NC(=O)[C@H]3CC[C@@H](n4cnc5c(N)nc(F)nc54)CC3)sc2C(C)(C)N1
24 | – | 13 | – | – | Cl.Nc1nc(Cl)nc2c1ncn2[C@H]1CC[C@@H](C(=O)Nc2nc3c(s2)CN(C2CC2)CC3)CC1
25 | – | 3 (≈ 1.41 µg/mL) | – | – | NC(=O)c1ccc2nc(NC(=O)[C@H]3CC[C@@H](n4cnc5c(N)nc(Cl)nc54)CC3)sc2c1
26 | > 10 | – | – | – | COc1cccc(NC(=O)[C@H]2CC[C@@H](n3cnc4c(N)nc(N5CCN(C)CC5)nc43)CC2)c1
27 | > 10 | – | – | – | COc1cccc(NC(=O)[C@H]2CC[C@@H](n3cnc4c(N)nc(-c5ccc6[nH]ncc6c5)nc43)CC2)c1
28 | – | 1 (≈ 0.458 µg/mL) | – | – | COc1ccc2nc(NC(=O)[C@H]3CC[C@@H](n4cnc5c(N)nc(Cl)nc54)CC3)sc2c1
29 | – | 4 (≈ 1.74 µg/mL) | – | – | Nc1nc(Cl)nc2c1ncn2[C@H]1CC[C@@H](C(=O)Nc2nc3c(s2)COCC3)CC1
30 | – | 5 (≈ 2.27 µg/mL) | – | – | Nc1nc(Cl)nc2c1ncn2[C@H]1CC[C@@H](C(=O)Nc2nc(-c3ccccc3)cs2)CC1
